From PMC3914206

Experiments:
Assay type in all cases: binding
Details in all cases: Compound Concentration 10 µM
panel of 442 kinases [1] = biological target: T1, panel of 442 kinases (Homo sapiens, UniProt P42336, I800L)
T1 construct: purchased KINOMEscan
From the text: (§1) We assessed the selectivity of members of this scaffold using the KINOMEscan methodology across a near comprehensive panel of 442 kinases [[18,27]].

panel of 442 kinases [2] = biological target: T2, panel of 442 kinases (Homo sapiens, UniProt P20794)
T2 construct: purchased KINOMEscan
T2 sequence (P20794 1-623): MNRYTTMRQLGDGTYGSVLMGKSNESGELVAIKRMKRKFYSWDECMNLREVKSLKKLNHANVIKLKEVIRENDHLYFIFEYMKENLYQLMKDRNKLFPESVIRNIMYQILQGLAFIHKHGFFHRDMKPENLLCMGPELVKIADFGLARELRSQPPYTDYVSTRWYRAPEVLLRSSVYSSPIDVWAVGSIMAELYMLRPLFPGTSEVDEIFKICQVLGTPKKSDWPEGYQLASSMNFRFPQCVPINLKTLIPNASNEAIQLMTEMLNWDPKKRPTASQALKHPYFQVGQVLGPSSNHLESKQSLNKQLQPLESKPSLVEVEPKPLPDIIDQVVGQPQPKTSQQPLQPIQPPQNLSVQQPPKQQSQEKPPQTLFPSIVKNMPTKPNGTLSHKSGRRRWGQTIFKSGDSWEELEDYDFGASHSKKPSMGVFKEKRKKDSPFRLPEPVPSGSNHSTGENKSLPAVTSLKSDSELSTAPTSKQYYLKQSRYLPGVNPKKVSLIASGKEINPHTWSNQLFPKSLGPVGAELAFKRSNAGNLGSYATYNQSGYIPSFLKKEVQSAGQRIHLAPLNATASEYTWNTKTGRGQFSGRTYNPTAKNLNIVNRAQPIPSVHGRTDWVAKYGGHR
From the text: as §1

panel of 442 kinases [3] = biological target: T3, panel of 442 kinases (Homo sapiens, UniProt P68400)
T3 construct: purchased KINOMEscan
T3 sequence (P68400 whole entry): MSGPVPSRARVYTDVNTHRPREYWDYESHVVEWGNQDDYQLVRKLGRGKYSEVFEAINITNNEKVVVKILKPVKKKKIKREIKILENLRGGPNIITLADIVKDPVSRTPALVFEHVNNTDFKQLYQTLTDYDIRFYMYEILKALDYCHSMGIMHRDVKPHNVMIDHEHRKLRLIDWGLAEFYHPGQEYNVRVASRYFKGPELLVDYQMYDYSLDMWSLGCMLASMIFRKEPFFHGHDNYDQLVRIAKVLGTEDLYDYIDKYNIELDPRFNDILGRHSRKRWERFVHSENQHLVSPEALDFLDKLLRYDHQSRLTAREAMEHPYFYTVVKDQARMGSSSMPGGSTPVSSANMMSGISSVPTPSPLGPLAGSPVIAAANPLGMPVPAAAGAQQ
From the text: as §1

T1 sequence (P42336 whole entry I800L): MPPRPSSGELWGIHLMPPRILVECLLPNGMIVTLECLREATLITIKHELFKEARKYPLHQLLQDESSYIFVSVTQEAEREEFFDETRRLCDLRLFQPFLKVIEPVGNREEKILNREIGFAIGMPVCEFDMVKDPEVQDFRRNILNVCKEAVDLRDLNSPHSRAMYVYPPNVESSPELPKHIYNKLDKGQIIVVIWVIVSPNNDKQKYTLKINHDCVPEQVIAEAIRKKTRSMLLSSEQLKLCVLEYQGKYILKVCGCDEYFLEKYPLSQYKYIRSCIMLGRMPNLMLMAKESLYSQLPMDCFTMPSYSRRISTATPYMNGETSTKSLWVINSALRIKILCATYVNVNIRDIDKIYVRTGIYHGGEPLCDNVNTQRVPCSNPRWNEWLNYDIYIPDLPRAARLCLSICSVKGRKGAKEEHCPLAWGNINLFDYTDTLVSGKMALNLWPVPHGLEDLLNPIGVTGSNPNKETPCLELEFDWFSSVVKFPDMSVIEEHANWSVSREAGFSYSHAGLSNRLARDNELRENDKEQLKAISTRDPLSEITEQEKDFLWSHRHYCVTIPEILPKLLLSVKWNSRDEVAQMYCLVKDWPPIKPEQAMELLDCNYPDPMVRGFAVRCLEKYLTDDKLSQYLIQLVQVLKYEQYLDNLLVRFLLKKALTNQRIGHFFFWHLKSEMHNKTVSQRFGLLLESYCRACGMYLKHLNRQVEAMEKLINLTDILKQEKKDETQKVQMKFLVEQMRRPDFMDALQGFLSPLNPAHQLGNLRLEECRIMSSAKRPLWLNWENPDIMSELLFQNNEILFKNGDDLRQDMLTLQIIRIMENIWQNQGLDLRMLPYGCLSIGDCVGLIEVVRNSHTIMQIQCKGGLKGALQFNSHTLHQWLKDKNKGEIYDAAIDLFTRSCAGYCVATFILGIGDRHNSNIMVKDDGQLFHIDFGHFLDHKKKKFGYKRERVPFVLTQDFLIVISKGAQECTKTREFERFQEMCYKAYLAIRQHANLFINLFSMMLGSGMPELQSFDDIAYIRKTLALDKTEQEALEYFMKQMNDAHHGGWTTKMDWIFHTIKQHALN

Row | SMILES | KINOMEscan: PIK3CA(I800L) (panel of 442 kinases [1]) | KINOMEscan: MAK (panel of 442 kinases [2]) | KINOMEscan: CSNK2A1 (panel of 442 kinases [3])
1 | COc1cc(C(=O)N2CCC(N3CCN(C)CC3)CC2)ccc1Nc1ncc2c(n1)N1CCc3cccc(c31)C(=O)N2C [Compound 24] | 64 | 100 | –
2 | CCOc1cc(C(=O)N2CCC(N3CCN(C)CC3)CC2)ccc1Nc1ncc2c(n1)N(C1CCCC1)c1ccccc1C(=O)N2C [Compound 26] | 75 | 100 | 89
3 | COc1cc(C(=O)N2CCC(N3CCN(C)CC3)CC2)ccc1Nc1ncc2c(n1)N(C1CCCC1)c1ccccc1C(=O)N2C [Compound 25, 11-cyclopentyl-2-((2-methoxy-4-(4-(4-methylpiperazin-1-yl)piperidine-1-carbonyl)phenyl)amino)-5-methyl-5H-benzo[e]pyrimido[5,4-b][1,4]diazepin-6(11H)-one] | 100 | 100 | 100
4 | COc1cc(C(=O)N2CCC(N3CCN(C)CC3)CC2)ccc1Nc1ncc2c(n1)N(C)c1ccccc1C(=O)N2C [15 (LRRK2-IN-1)] | 38 | 72 | 100
